Measurements published in PubChem BioAssay (NCI).
Where “and” joins values, the source holds several entries; their conditions need not be identical. Equal values may be shown once.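 All cell lines were grown in 96-well plates and treated with compound for 48 hours. At the GI50, growth is halved. TGI: total growth inhibition.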

How the values were obtained:
Test in all cases: DTP human tumour cell line panel, 48 h
SNB-19 CNS = system: SNB-19 CNS
SK-MEL-5 melanoma = system: SK-MEL-5 melanoma
IGROV1 ovarian = system: IGROV1 ovarian
RXF 393 renal = system: RXF 393 renal
HOP-92 NSCLC = system: HOP-92 NSCLC
SF-295 CNS = system: SF-295 CNS
CCRF-CEM leukemia = system: CCRF-CEM leukemia
SK-MEL-28 melanoma = system: SK-MEL-28 melanoma
NCI-H460 lung = system: NCI-H460 lung
MOLT-4 leukemia = system: MOLT-4 leukemia

Structure (SMILES) | TGI (SNB-19 CNS) | TGI (SK-MEL-5 melanoma) | TGI (IGROV1 ovarian) | TGI (RXF 393 renal) | TGI (HOP-92 NSCLC) | TGI (SF-295 CNS) | TGI (CCRF-CEM leukemia) | TGI (SK-MEL-28 melanoma) | TGI (NCI-H460 lung) | TGI (MOLT-4 leukemia) | GI50 (SNB-19 CNS) | GI50 (SK-MEL-5 melanoma) | GI50 (IGROV1 ovarian) | GI50 (RXF 393 renal) | GI50 (HOP-92 NSCLC) | GI50 (SF-295 CNS) | GI50 (CCRF-CEM leukemia) | GI50 (SK-MEL-28 melanoma) | GI50 (NCI-H460 lung) | GI50 (MOLT-4 leukemia)
O=C(/C=C/c1ccccc1)NC1C=Nc2ccc(Cl)cc2NC1=O (stereo not drawn) | > 100 µM | 51.6 µM | > 100 µM | 52.4 µM | > 100 µM | > 100 µM | 33.5 µM | > 100 µM | 51 µM | 27.3 µM | – | – | – | – | – | – | – | – | – | –
COC1CCC(N2C(=O)CNc3ncc(-c4ccc(C(C)(C)O)nc4)nc32)CC1 (stereo not drawn) | > 36.2 µM | 2.79 µM and 1.46 µM | 2.8 µM and 1.64 µM | 3.66 µM and 2.32 µM | 0.934 µM and 0.389 µM | 4.75 µM and 3.09 µM | > 100 µM | 4.1 µM and 10.4 µM | > 46 µM | > 100 µM | 2.02 µM and 1.57 µM | 0.766 µM and 0.149 µM | 0.315 µM and 0.0564 µM | 0.373 µM and 0.187 µM | 0.129 µM and 0.0247 µM | 0.511 µM and 0.157 µM | 1.41 µM and 0.738 µM | 0.378 µM and 0.155 µM | 0.455 µM and 0.113 µM | 1.51 µM and 0.437 µM
O=C(Nc1ccc(Cl)c(Cl)c1)Nc1ccc(Cl)c(Cl)c1 | 15.4 µM and 23 µM | 3.35 µM and 3.18 µM | 22.2 µM and 10.5 µM | 11.6 µM and 6.57 µM | 5.81 µM and 4.47 µM | 6.93 µM and 5.39 µM | 14.1 µM and 6.47 µM | 14.2 µM and > 100 µM | 10.6 µM and 8.59 µM | 10.2 µM and 6.6 µM | 3.03 µM and 3.7 µM | 1.74 µM and 1.77 µM | 4.2 µM and 3.36 µM | 2.81 µM and 2.57 µM | 2.19 µM and 1.23 µM | 2.3 µM and 1.84 µM | 3.36 µM and 1.97 µM | 3.24 µM and 4.13 µM | 2.85 µM and 2.24 µM | 2.64 µM and 2.31 µM
OCc1ccc(N2CCC2c2ccc(F)cc2)cc1Cl (stereo not drawn) | > 100 µM | 22.9 µM | 0.742 µM | 30.4 µM | 25.1 µM | 7.62 µM | > 82.9 µM | > 100 µM | 12.4 µM | 64.6 µM | 36.6 µM | 8.92 µM | – | 11.6 µM | 3.14 µM | 0.438 µM | 26 µM | 28.7 µM | 0.511 µM | 25 µM
O=C(/C=C/C12c3ccccc3C(c3ccccc31)C1C(=O)NC(=O)C12)c1ccncc1 (stereo not drawn) | 7.46 µM | 3.25 µM | 8 µM | 3.27 µM | 6.27 µM | 7.54 µM | 8.87 µM | 4.57 µM | 4.76 µM | 9.17 µM | 2.33 µM | 1.72 µM | 2.39 µM | 1.74 µM | 1.94 µM | 2.59 µM | 2.39 µM | 2.1 µM | 2.16 µM | 2.57 µM
COc1ccc(-c2nc3sccn3c2/C(N)=N/C(=N)N)cc1OC | > 100 µM | 44.5 µM | 7.11 µM | > 100 µM | > 100 µM | 87.1 µM | > 100 µM | > 100 µM | > 100 µM | > 100 µM | 35.3 µM | 21.3 µM | 3.26 µM | > 100 µM | 56.5 µM | 30.5 µM | 38.4 µM | 32.5 µM | 46.7 µM | 27.6 µM
COC(CN1C(=O)c2cccc3cccc(c23)C1=O)OC | > 100 µM | > 100 µM | > 100 µM | > 100 µM | > 100 µM | > 100 µM | > 100 µM | > 100 µM | > 100 µM | > 100 µM | – | – | – | – | – | – | – | – | – | –
O=C1CC(c2ccc3c(c2)OCO3)Nc2ccccc21 (stereo not drawn) | 30.2 µM | 25.8 µM | 47.8 µM | 28.3 µM | 32.3 µM | 24.1 µM | > 100 µM | 32.7 µM | 33.7 µM | 64.2 µM | 12.5 µM | 12.6 µM | 10.9 µM | 11.7 µM | 4.96 µM | 10.1 µM | 3.85 µM | 15.1 µM | 9.02 µM | 12.8 µM
O=C1C=C(Cl)C(=O)C(c2ccc(Cl)cc2)=C1 | > 100 µM | 34.3 µM | 30.8 µM | 34 µM | 35.7 µM | > 100 µM | 15.9 µM | 43.4 µM | > 100 µM | 22.1 µM | – | – | – | – | – | – | – | – | – | –
O=C1C(Cl)=C(Nc2cccc(Cl)c2)C(=O)N1Cc1ccc(Cl)cc1Cl | 18 µM | 4.5 µM | 9.15 µM | 3.83 µM | 20.9 µM | 33.4 µM | > 100 µM | 14.2 µM | 21 µM | > 100 µM | 0.842 µM | 0.321 µM | < 0.023 µM | 0.181 µM | 2.55 µM | 4.22 µM | 4.38 µM | 1.67 µM | 2.68 µM | –
CCOC(=O)[C@]1(OC(C)=O)C[C@H](OC(C)=O)[C@@H](C(F)COP(=O)(OCc2ccccc2)OCc2ccccc2)O1 (stereo partly drawn) | > 100 µM | > 100 µM | 39.8 µM and > 100 µM | 68.2 µM and > 100 µM | 34.5 µM | > 100 µM | > 100 µM | > 100 µM | 39.9 µM and > 100 µM | > 100 µM | 32.9 µM and > 100 µM | – | 19.6 µM and > 100 µM | 24.5 µM and > 100 µM | – | 47.9 µM and > 100 µM | – | – | 18.4 µM and > 100 µM | –
O=C1C2C(C(=O)N1OS(=O)(=O)c1ccccc1)N(Cc1ccccc1)C(=O)N2Cc1ccccc1 (stereo not drawn) | > 100 µM | > 100 µM | > 100 µM | > 100 µM | > 100 µM | > 100 µM | > 100 µM | > 100 µM | > 100 µM | > 100 µM | – | – | – | – | – | – | – | – | – | –
